Measured values taken from the supplement of paper PMC8967900.

Experiments:
Test in all cases: selective drug sensitivity score (sDSS, relative to normal bone marrow) (sDSS (score)); higher = more potent and effective on the cell line relative to normal bone marrow cells
Conditions in all cases: 72 h
ALL-PO = tested on: ALL-PO
ALL-SIL = tested on: ALL-SIL
CCRF-HSB2 = tested on: CCRF-HSB2
COG-LL-317 = tested on: COG-LL-317
COG-LL-394h = tested on: COG-LL-394h
COG-LL-402h = tested on: COG-LL-402h
DND-41 = tested on: DND-41
HAL-01 = tested on: HAL-01
HPB-ALL = tested on: HPB-ALL
KASUMI-10 = tested on: KASUMI-10
KASUMI-2 = tested on: KASUMI-2
KOPN-8 = tested on: KOPN-8
MHH-CALL-2 = tested on: MHH-CALL-2
MHH-CALL-4 = tested on: MHH-CALL-4
MOLT-16 = tested on: MOLT-16
P12-ICHIKAWA = tested on: P12-ICHIKAWA
RCH-ACV = tested on: RCH-ACV
RPMI-8402 = tested on: RPMI-8402
SEM cells = tested on: SEM cells
SUP-B15 = tested on: SUP-B15
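Also: ALL cell lines in 384-well plates, five doses spanning 10,000-fold, each plate scaled between vehicle and 100 µmol/L benzalkonium chloride controls, sDSS an adapted area-under-curve metric.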

Row | Structure (SMILES) | selective drug sensitivity score (ALL-PO) | selective drug sensitivity score (ALL-SIL) | selective drug sensitivity score (CCRF-HSB2) | selective drug sensitivity score (COG-LL-317) | selective drug sensitivity score (COG-LL-394h) | selective drug sensitivity score (COG-LL-402h) | selective drug sensitivity score (DND-41) | selective drug sensitivity score (HAL-01) | selective drug sensitivity score (HPB-ALL) | selective drug sensitivity score (KASUMI-10) | selective drug sensitivity score (KASUMI-2) | selective drug sensitivity score (KOPN-8) | selective drug sensitivity score (MHH-CALL-2) | selective drug sensitivity score (MHH-CALL-4) | selective drug sensitivity score (MOLT-16) | selective drug sensitivity score (P12-ICHIKAWA) | selective drug sensitivity score (RCH-ACV) | selective drug sensitivity score (RPMI-8402) | selective drug sensitivity score (SEM cells) | selective drug sensitivity score (SUP-B15)
1 | CC(C)C[C@H](NC(=O)CNC(=O)c1cc(Cl)ccc1Cl)B(O)O [Ixazomib] (top concentration 1000 nM) | 8.46 | 7.56 | 8.86 | 6.26 | 5.26 | 3.46 | 9.36 | 8.26 | 8.46 | 3.16 | 4.66 | 6.26 | 5.26 | 7.96 | 7.06 | 5.76 | 7.36 | 6.56 | 13.1 | 11.5
2 | CC(C)c1c(C(=O)Nc2ccccc2)c(-c2ccccc2)c(-c2ccc(F)cc2)n1CC[C@@H](O)C[C@@H](O)CC(=O)O [Atorvastatin] (top concentration 10000 nM) | 1.1 | 4.2 | -2.1 | 8 | -1.2 | -1.8 | 1.9 | -1.9 | -1.5 | -1.8 | -3.7 | 6.6 | 0 | 0.1 | 2 | 0.7 | -1 | 2.9 | 0.4 | 0.8
3 | O=C(CCCCCCC(=O)Nc1ccc([C@H]2O[C@@H](CSc3nc(-c4ccccc4)c(-c4ccccc4)o3)C[C@@H](c3ccc(CO)cc3)O2)cc1)NO [Tubacin] (top concentration 10000 nM) | 5.74 | 9.84 | 15.8 | 10.3 | 5.44 | 5.04 | 5.54 | 2.14 | 4.44 | 4.54 | 4.14 | 16.9 | 7.74 | 7.84 | 9.14 | 14.9 | 11.2 | 7.64 | 9.44 | 16.5
4 | Cc1cc2c(C(C)C)c(O)c(O)c(C=O)c2c(O)c1-c1c(C)cc2c(C(C)C)c(O)c(O)c(C=O)c2c1O [AT-101] (top concentration 100000 nM) | 8.98 | 5.08 | 2.48 | 8.08 | 3.78 | 4.18 | 4.68 | 0.58 | 10.9 | 2.48 | -0.32 | 14.6 | 4.18 | 3.98 | 5.88 | 2.78 | 0.98 | 1.88 | 3.78 | 5.78
5 | CCc1cnn2c(NCc3ccc[n+]([O-])c3)cc(N3CCCC[C@H]3CCO)nc12 [Dinaciclib] (top concentration 1000 nM) | -6.64 | -1.74 | -2.74 | 1.26 | -1.74 | 2.86 | -0.14 | -5.74 | -4.34 | -2.24 | -7.74 | -6.34 | -3.74 | -4.04 | -2.24 | -6.44 | -0.64 | -2.64 | -4.34 | -3.64
6 | CN1CCc2c(c3ccccc3n2Cc2ccc(C(=O)NO)cc2)C1 [Tubastatin_A] (top concentration 10000 nM) | 3.06 | 3.36 | 2.06 | 1.96 | -0.14 | 7.46 | 2.66 | 1.76 | 6.76 | 2.46 | 7.06 | 9.86 | 3.76 | -0.14 | 2.86 | 0.36 | 8.16 | 1.86 | 4.76 | 3.46
7 | Cn1c(Nc2ccc(C(F)(F)F)cc2)nc2cc(Oc3ccnc(-c4ncc(C(F)(F)F)[nH]4)c3)ccc21 [NVP-RAF265] (top concentration 1000 nM) | 6.68 | 8.28 | 5.98 | 7.28 | 5.98 | 5.98 | 3.58 | 5.68 | 0.08 | 6.08 | -0.22 | 4.18 | 12 | 7.48 | 8.68 | 2.58 | 6.68 | 0.98 | 4.48 | 7.78
8 | CCN1CCN(Cc2ccc(Nc3ncc(F)c(-c4cc(F)c5nc(C)n(C(C)C)c5c4)n3)nc2)CC1 [Abemaciclib] (top concentration 2500 nM) | -3.36 | -2.66 | -2.46 | -2.36 | -3.26 | 1.74 | 0.34 | -3.06 | -2.46 | -1.06 | 1.74 | 20.2 | -3.96 | -1.76 | 8.24 | -4.06 | 8.74 | 0.74 | -1.86 | 6.74
9 | Cc1nc(-c2cn3c(n2)-c2ccc(-c4cnn(C(C)(C)C(N)=O)c4)cc2OCC3)n(C(C)C)n1 [Taselisib] (top concentration 1000 nM) | 13.2 | 1.2 | 2.3 | 0.8 | -2.7 | 10.9 | -4.3 | 11.1 | -0.4 | 1.7 | 4 | -0.9 | 6.9 | 7.9 | 2.8 | -0.3 | 22.1 | 1.5 | 5.2 | -1.4
10 | CC(C)c1cc(C(=O)N2Cc3ccc(CN4CCN(C)CC4)cc3C2)c(O)cc1O [Onalespib] (top concentration 2500 nM) | 1.62 | 4.52 | 7.32 | 11.5 | -2.38 | 7.22 | 4.62 | 1.82 | 4.62 | 3.92 | 7.72 | 6.82 | -1.28 | -0.48 | 7.42 | 2.22 | 6.52 | 1.32 | 3.92 | 3.92
11 | C=CC(=O)N1CCC[C@@H](n2nc(-c3ccc(Oc4ccccc4)cc3)c3c(N)ncnc32)C1 [Ibrutinib] (top concentration 1000 nM) | 1.8 | 0 | 7 | 0 | 0 | 9.1 | 0 | 1.9 | 1.5 | 0 | 0 | 2.7 | 0.1 | 0 | 2 | 0 | 15 | 1.1 | 0 | 10
12 | Cc1cn(-c2cc(NC(=O)c3ccc(C)c(Nc4nccc(-c5cnccn5)n4)c3)cc(C(F)(F)F)c2)cn1 [Radotinib] (top concentration 10000 nM) | 3.7 | 43.3 | 8.2 | 0 | 1.8 | 0 | 13.8 | 0 | 6.4 | 0 | 0 | 10.3 | 10.1 | 0 | 0.4 | 0.7 | 9.4 | 3.3 | 0 | 36.2
13 | CC1CCC(n2c3cnccc3c3cnc(Nc4ccc5c(n4)CCN(C(=O)CO)C5)nc32)CC1 (stereo not given) [AMG-925] (top concentration 1000 nM) | 11.4 | 2.04 | 1.94 | 1.44 | -0.66 | 6.14 | 6.14 | 3.44 | 5.84 | 9.54 | -0.66 | 10.9 | 4.94 | 3.54 | 10.5 | 3.84 | 14.7 | 5.74 | 10 | 11.7
14 | Nc1cccc2c1CN(C1CCC(=O)NC1=O)C2=O (stereo not given) [Lenalidomide] (top concentration 100000 nM) | -2.28 | -0.88 | 0.22 | 2.92 | -2.28 | -2.28 | 2.12 | 4.22 | -2.28 | 3.22 | -2.28 | 1.02 | 1.92 | 5.42 | -0.88 | -2.28 | 4.42 | -2.08 | 3.82 | -2.28
15 | Cn1ncc(Cl)c1-c1cc(C(=O)N[C@H](CN)Cc2cccc(F)c2)sc1Cl [Afuresertib] (top concentration 1000 nM) | 4.26 | 3.66 | 0.86 | 5.26 | -0.94 | 4.56 | -2.34 | 3.96 | 2.86 | -2.34 | 10.2 | 6.06 | 7.36 | 5.06 | 10.4 | -0.44 | 5.36 | 1.16 | 0.36 | 5.66
16 | Nc1nc(Cl)nc2c1ncn2[C@@H]1O[C@H](CO)[C@@H](O)[C@@H]1F [Clofarabine] (top concentration 10000 nM) | 1.2 | 4.9 | 6.8 | 7.1 | -27.4 | 8.1 | 1.4 | 2.7 | -8.5 | 1 | 8.3 | 6.7 | 9.2 | 6.5 | 4.4 | 2.1 | 6.8 | 3.5 | 7 | 10.5
17 | CN1CCN(c2nc(C3=C(c4c[nH]c5ccccc45)C(=O)NC3=O)c3ccccc3n2)CC1 [Sotrastaurin] (top concentration 10000 nM) | 5 | 2.7 | 3.5 | 0 | 0.2 | 5.2 | 0.3 | 2.3 | 2.6 | 7.7 | 2.8 | 6.4 | 9.9 | 4.2 | 4.4 | -1.3 | 3.4 | 0 | 6.7 | 2.2
